For one data set, the target named is T1, CB1 cannabinoid receptor (Rattus norvegicus, UniProt P20272).
T1 construct: membranes were prepared from rat forebrain membranes; from tissue; host or cells: rat forebrain
Briefly: CB1 receptor binding, [3H] CP-55,940 displacement, rat forebrain membranes. The method, then: (§1) The prepared cannabinoid compounds were tested for CB2 receptor binding affinity and for CB1 receptor affinity (to determine selectivity for the CB2 receptor). As used herein, “binding affinity” is represented by the IC50 value which is the concentration of an analog required to occupy the 50% of the total number (Bmax) of the receptors. The lower the IC50 value, the higher the binding affinity. […] The binding affinities (Ki) are expressed in nanomoles (nM).
For the CB1 receptor binding studies, membranes were prepared from rat forebrain membranes according to the procedure of P. R. Dodd et al; A Rapid Method for Preparing Synaptosomes: Comparison with Alternative Procedures, Brain Res., 107-118 (1981). The binding of the novel analogues to the CB1 cannabinoid receptor was assessed as described in W. A. Devane et al; Determination and Characterization of a Cannabinoid Receptor in a Rat Brain, Mol. Pharmacol., 34, 605-613 (1988) and A. Charalambous et al; “5′-azido ^8−THC: A Novel Photoaffinity Label for the Cannabinoid Receptor”, J. Med. Chem., 35, 3076-3079 (1992) with the following changes. The above articles are incorporated by reference herein.
Membranes, previously frozen at −80° C., were thawed on ice. To the stirred suspension was added three volumes of TME (25 mM Tris-HCl buffer, 5 mM MgCl2 and 1 mM EDTA) at a pH 7.4. The suspension was incubated at 40° C. for 30 min. At the end of the incubation, the membranes were pelleted and washed three times with TME.
(§2) The treated membranes were subsequently used in the binding assay described below. Approximately 30 μg of membranes were incubated in silanized 96-well microtiter plate with TME containing 0.1% essentially fatty acid-free bovine serum albumin (BSA), 0.8 nM [^3H] CP-55,940, and various concentrations of test materials at 30° C. for 1 hour. The samples were immediately filtered using a Packard Filtermate 196 and Whatman GF/C filterplates and washed with wash buffer (TME) containing 0.5% BSA. Radioactivity was detected using MicroScint 20 scintillation cocktail added directly to the dried filterplates, and the filterplates were counted using a Packard Instruments Top-Count. Nonspecific binding was assessed using 100 nM CP-55,940. Data collected from three independent experiments performed with duplicate determinations was normalized between 100% and 0% specific binding for [^3H] CP-55,940, determined using buffer and 100 nM CP-55,940. The normalized data was analyzed using a 4-parameter nonlinear logistic equation to yield IC50 values. Data from at least two independent experiments performed in duplicate was used to calculate IC50 values which were converted to Ki values using the using the assumptions of Cheng et al; “Relationship Between the Inhibition Constant (Ki) and the concentration of Inhibitor which causes 50% Inhibition (IC50) of an Enzymatic Reaction”, Biochem. Pharmacol., 22, 3099-3102, (1973), which is incorporated by reference herein.

For the next data set, the target named is T2, CB2 receptor (Mus musculus, UniProt P47936).
T2 construct: membranes were prepared from frozen mouse spleen; from tissue; host or cells: mouse spleen
T2 sequence (P47936 whole entry): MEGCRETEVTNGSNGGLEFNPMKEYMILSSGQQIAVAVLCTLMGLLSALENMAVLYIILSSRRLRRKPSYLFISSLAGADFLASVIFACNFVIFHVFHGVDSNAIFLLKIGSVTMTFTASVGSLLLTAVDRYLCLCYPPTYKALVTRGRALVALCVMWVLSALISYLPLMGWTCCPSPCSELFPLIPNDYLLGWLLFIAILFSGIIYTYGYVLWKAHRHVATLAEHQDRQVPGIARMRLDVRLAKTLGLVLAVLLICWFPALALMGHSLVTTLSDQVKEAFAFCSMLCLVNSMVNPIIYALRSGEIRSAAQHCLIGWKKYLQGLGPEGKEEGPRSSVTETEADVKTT
The experiment in a line: biochemical. The data set is classed as binding. The conditions noted are these: for Selectivity for CB2: ratio of CB1 Ki to CB2 Ki. The method, then: as §1, §2
For the CB2 receptor binding studies, membranes were prepared from frozen mouse spleen essentially according to the procedure of P. R. Dodd et al; “A Rapid Method for Preparing Synaptosomes: Comparison with Alternative Procedures”, Brain Res., 226, 107-118 (1981) which is incorporated by reference herein. Silanized centrifuge tubes were used throughout to minimize receptor loss due to adsorption. The CB2 binding assay was conducted in the same manner as the CB1 binding assay. The binding affinities (Ki) were also expressed in nanomoles (nM).

Where [1] appears, read: rat forebrain membranes, 0.8 nM [3H] CP-55,940, read-out: Ki(nM) CB1.
Where [2] appears, read: mouse spleen membranes, [3H] CP-55,940, read-out: Ki(nM) CB2.

Where two headings read alike, the source gives them in different places.

T1 sequence (P20272 whole entry): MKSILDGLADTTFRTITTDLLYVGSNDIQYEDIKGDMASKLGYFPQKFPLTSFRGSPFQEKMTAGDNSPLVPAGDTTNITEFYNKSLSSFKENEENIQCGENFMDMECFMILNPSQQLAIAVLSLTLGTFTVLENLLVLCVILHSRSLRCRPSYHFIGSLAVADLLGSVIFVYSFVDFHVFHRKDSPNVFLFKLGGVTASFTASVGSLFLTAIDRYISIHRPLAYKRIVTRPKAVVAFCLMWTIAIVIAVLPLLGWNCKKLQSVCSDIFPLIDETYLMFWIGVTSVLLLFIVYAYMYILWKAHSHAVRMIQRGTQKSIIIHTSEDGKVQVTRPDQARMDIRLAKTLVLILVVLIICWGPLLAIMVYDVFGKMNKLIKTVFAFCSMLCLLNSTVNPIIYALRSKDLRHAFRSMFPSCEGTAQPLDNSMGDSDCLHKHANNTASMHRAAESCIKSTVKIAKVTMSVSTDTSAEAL

`CCCOC(=O)C1=NN(c2ccccc2)C(C(=O)OCCC)=NN1c1ccccc1` [compound 3, Dipropyl-1,4-diphenyl-1,4-dihydro-1,2,4,5-tetrazine-3,6-dicarboxylate] had a melting point of 82.5 to 83 °C. The Ki on CB1 cannabinoid receptor (setting [1]) worked out at 618 nM. In addition, the Ki at CB2 receptor (setting [2]) stood at 23.3 nM. For the same compound, the “Selectivity for CB2” value at CB2 receptor is 27.

For the compound `O=C(C1=NN(c2ccccc2)C(C(=O)N2CCCCC2)=NN1c1ccccc1)N1CCCCC1` [compound 9], the Ki came out at 9990 nM at CB1 cannabinoid receptor (setting [1]) and 221 nM at CB2 receptor (setting [2]). For the same compound, the “Selectivity for CB2” value at CB2 receptor was determined as 42.

`CCOC(=O)C1=NN(C(=O)c2ccccc2I)C(C(=O)OCC)=NN1C(=O)c1ccccc1I` yielded a melting point of 186 to 187 °C.

Regarding `CCNC(=O)C1=NN(c2ccccc2)C(C(=O)NCC)=NN1c1ccccc1` [compound 7], on CB1 cannabinoid receptor (setting [1]), the Ki turned out to be 100000 nM. For the same compound, the “Selectivity for CB2” value at CB2 receptor is given as 1.

Consider `CCOC(=O)C1=NN(c2ccccc2)C(C(=O)NC2CC3CC(C2C)C3(C)C)=NN1c1ccccc1` (centres unmarked) [compound 14, 1,4-Diphenyl-1,4-dihydro-1,2,4,5-tetrazine-3-carboxylic N-piperidinyl amide-6-carboxylic acid ethyl ester], for which the Ki on CB1 cannabinoid receptor came to 2050 nM; on CB2 receptor (setting [2]), 805 nM. Besides, the “Selectivity for CB2” value on CB2 receptor amounted to 2.6.

As to “N,N-Dibutyl-1,4-diphenyl-1,4-dihydro-1,2,4,5-tetrazine-3,6-dicarboxylic di-amide [compound 8]”, the Ki was found to be 16000 nM on CB1 cannabinoid receptor (setting [1]) and 692 nM on CB2 receptor (setting [2]). The “Selectivity for CB2” value on CB2 receptor is 23.

Consider `CCOC(=O)C1=NN(c2ccc(Cl)cc2)C(C(=O)OCC)=NN1c1ccccc1` [compound 22, 1-(4-chlorophenyl)-4-phenyl-1,4-dihydro-1,2,4,5-tetrazine-3,6-dicarboxylic acid diethyl ester], for which the Ki at CB1 cannabinoid receptor (setting [1]) was 1500 nM; at CB2 receptor (setting [2]), 43 nM. Further, the “Selectivity for CB2” value at CB2 receptor was found to be 34.

Turning to `CCOC(=O)C1=NN(C(=O)c2ccccc2)C(C(=O)OCC)=NN1C(=O)c1ccccc1` [compound 21, 1,4-Dibenzoyl-1,4-dihydro-1,2,4,5-tetrazine-3,6-dicarboxylic acid diethyl ester], the melting point lay in the range of 133.5 to 134 °C. For the same compound, the Ki at CB1 cannabinoid receptor (setting [1]) amounted to 100000 nM. Moreover, on CB2 receptor, the “Selectivity for CB2” value came to 1.

Regarding `NC(=O)C1=NN(c2ccccc2)C(C(N)=O)=NN1c1ccccc1` [compound 5], the inhibition constant (Ki) on CB1 cannabinoid receptor (setting [1]) and at CB2 receptor (setting [2]) was 10000 nM each time. Moreover, on CB2 receptor, the “Selectivity for CB2” value is recorded as 1.

Take `CCOC(=O)C1=NN(c2ccccc2)C(C(C)=O)=NN1c1ccccc1` [compound 12, 1,4-Diphenyl-1,4-dihydro-1,2,4,5-tetrazine-3-aceto-6-carboxylic acid ethyl ester]: the inhibition constant Ki at CB1 cannabinoid receptor (setting [1]) was determined as 7700 nM; on CB2 receptor (setting [2]), 327 nM. For the same compound, the “Selectivity for CB2” value on CB2 receptor is 24.

`CN(C)C(=O)C1=NN(c2ccccc2)C(C(N)=O)=NN1c1ccccc1` [compound 6, N,N-Dimethyl-1,4-diphenyl-1,4-dihydro-1,2,4,5-tetrazine-3,6-dicarboxylic di-amide] had a melting point of 243 to 243.5 °C.

With `CC1C(NC(=O)C2=NN(c3ccccc3)C(C(=O)NC3CC4CC(C3C)C4(C)C)=NN2c2ccccc2)CC2CC1C2(C)C` (centres unmarked) [compound 11], affinity at CB1 cannabinoid receptor was put at a Ki of 100000 nM. Further, the “Selectivity for CB2” value at CB2 receptor is given as 1.

As for `CCOC(=O)C1=NN(c2ccc(OC)cc2)C(C(=O)OCC)=NN1c1ccc(OC)cc1` [compound 18], the Ki at CB1 cannabinoid receptor (setting [1]) was 4590 nM; at CB2 receptor (setting [2]), 72 nM. Also, at CB2 receptor, the “Selectivity for CB2” value worked out at 64.

The compound `CCOC(=O)C1=NN(c2ccc([N+](=O)[O-])cc2)C(C(=O)OCC)=NN1c1ccc([N+](=O)[O-])cc1` [compound 15] returned a Ki at CB1 cannabinoid receptor of 100000 nM.

`CCOC(=O)C1=NN(c2ccc(Cl)cc2Cl)C(C(=O)OCC)=NN1c1ccc(Cl)cc1Cl` [compound 19]: the Ki on CB1 cannabinoid receptor (setting [1]) and at CB2 receptor (setting [2]) was 10000 nM each time. Also, the “Selectivity for CB2” value at CB2 receptor stood at 1.

In turn, `CCOC(=O)C1=NN(c2ccc(Br)cc2)C(C(=O)OCC)=NN1c1ccc(Cl)cc1` [compound 23] came in with a melting point of 130 to 131 °C. In addition, the Ki at CB1 cannabinoid receptor (setting [1]) amounted to 542 nM. Besides, the Ki on CB2 receptor (setting [2]) was found to be 30 nM. Also, the “Selectivity for CB2” value at CB2 receptor was determined as 18.

Consider `CCOC(=O)C1=NN(c2ccccc2)C(C(=O)N2CCCCC2)=NN1c1ccccc1` [compound 13, 1,4-Diphenyl-1,4-dihydro-1,2,4,5-tetrazine-3-carboxylic N-isopinocampheyl amide-6-carboxylic ethyl ester], for which the Ki came to 5040 nM at CB1 cannabinoid receptor (setting [1]) and 255 nM on CB2 receptor (setting [2]). The “Selectivity for CB2” value at CB2 receptor is reported as 20.

For `CC(=O)C1=NN(c2ccccc2)C(C(C)=O)=NN1c1ccccc1` [compound 4, 1,4-Diphenyl-1,4-dihydro-3,6-diacetyl-1,2,4,5-tetrazine], the Ki at CB1 cannabinoid receptor (setting [1]) amounted to 10000 nM. In addition, at CB2 receptor, the Ki came to 10000 nM and the “Selectivity for CB2” value stood at 1.

Regarding `CCOC(=O)C1=NN(c2ccc(Cl)cc2)C(C(=O)OCC)=NN1c1ccc(Cl)cc1` [compound 16, 1,4-Di-(4-chlorophenyl)-1,4-dihydro-1,2,4,5-tetrazine-3,6-dicarboxylic acid diethyl ester], the Ki on CB1 cannabinoid receptor (setting [1]) is 208 nM; on CB2 receptor (setting [2]), 48 nM. Moreover, the “Selectivity for CB2” value at CB2 receptor amounted to 4.3.

In the case of `COC(=O)C1=NN(c2ccccc2)C(C(=O)OC)=NN1c1ccccc1` [compound 1, Dimethyl 1,4-diphenyl-1,4-dihydro-1,2,4,5-tetrazine-3,6-dicarboxylate], the melting point was 171 to 172 °C. Further, on CB1 cannabinoid receptor (setting [1]), the inhibitory constant (Ki) was 31000 nM. Further, the inhibition constant Ki at CB2 receptor (setting [2]) stood at 381 nM. Also, on CB2 receptor, the “Selectivity for CB2” value stood at 81.

Compound `CC(CO)NC(=O)C1=NN(c2ccccc2)C(C(=O)NC(C)CO)=NN1c1ccccc1` (centres unmarked) [compound 10] registered a melting point of 262 to 263 °C. At CB1 cannabinoid receptor (setting [1]), the inhibitory constant (Ki) amounted to 100000 nM. On CB2 receptor, the “Selectivity for CB2” value was determined as 1.

Consider `CCN(CC)C(=O)C1=NN(c2ccccc2)C(C(N)=O)=NN1c1ccccc1` [compound 7, N,N-Diethyl-1,4-diphenyl-1,4-dihydro-1,2,4,5-tetrazine-3,6-dicarboxylic di-amide], for which the melting point was in the range of 239 to 240 °C.

In turn, `CCOC(=O)c1nnc(C(=O)OCC)c2c1[nH]c1ccccc12` yielded a melting point of 151 to 152 °C.

As for `CCOC(=O)C1=NN(c2cccc3ccccc23)C(C(=O)OCC)=NN1c1ccccc1` [compound 24, 1-Phenyl-4-α-naphthalenyl-1,4-dihydro-1,2,4,5-tetrazine-3,6-dicarboxylic acid diethyl ester], the Ki amounted to 7360 nM at CB1 cannabinoid receptor (setting [1]) and 182 nM on CB2 receptor (setting [2]). Moreover, the “Selectivity for CB2” value at CB2 receptor is reported as 40.

Compound `CCOC(=O)C1=NN(c2cccc3ccccc23)C(C(=O)OCC)=NN1c1cccc2ccccc12` [compound 20, 1,4-Di-(α-naphthalene)-1,4-dihydro-1,2,4,5-tetrazine-3,6-dicarboxylic acid diethyl ester] gave a melting point of 129 to 130 °C. For the same compound, the Ki on CB1 cannabinoid receptor (setting [1]) is 1e+06 nM. Moreover, the Ki on CB2 receptor (setting [2]) stood at 1910 nM. Besides, the “Selectivity for CB2” value at CB2 receptor came to 524.

Regarding `CCOC(=O)C1=NN(c2ccc(Br)cc2)C(C(=O)OCC)=NN1c1ccc(Br)cc1` [compound 17], the Ki is 350 nM on CB1 cannabinoid receptor (setting [1]) and 200 nM on CB2 receptor (setting [2]).

`CNC(=O)C1=NN(c2ccccc2)C(C(=O)NC)=NN1c1ccccc1` [compound 6]: at CB1 cannabinoid receptor (setting [1]), the Ki is 66000 nM. Besides, the “Selectivity for CB2” value at CB2 receptor came out at 1.

(Values after patent US7329651B2 (priority 2001, dated 2008).)
